{"source": "patent US9994576B2", "about": "“Substituted pyrazolo[3,4-d]pyrimidines as kinase inhibitors” (PRINCIPIA BIOPHARMA INC., priority 2012, dated 2018)", "molecular_target": "protein target (Homo sapiens (Human), UniProt Q06187)", "sequence (Q06187 whole entry)": "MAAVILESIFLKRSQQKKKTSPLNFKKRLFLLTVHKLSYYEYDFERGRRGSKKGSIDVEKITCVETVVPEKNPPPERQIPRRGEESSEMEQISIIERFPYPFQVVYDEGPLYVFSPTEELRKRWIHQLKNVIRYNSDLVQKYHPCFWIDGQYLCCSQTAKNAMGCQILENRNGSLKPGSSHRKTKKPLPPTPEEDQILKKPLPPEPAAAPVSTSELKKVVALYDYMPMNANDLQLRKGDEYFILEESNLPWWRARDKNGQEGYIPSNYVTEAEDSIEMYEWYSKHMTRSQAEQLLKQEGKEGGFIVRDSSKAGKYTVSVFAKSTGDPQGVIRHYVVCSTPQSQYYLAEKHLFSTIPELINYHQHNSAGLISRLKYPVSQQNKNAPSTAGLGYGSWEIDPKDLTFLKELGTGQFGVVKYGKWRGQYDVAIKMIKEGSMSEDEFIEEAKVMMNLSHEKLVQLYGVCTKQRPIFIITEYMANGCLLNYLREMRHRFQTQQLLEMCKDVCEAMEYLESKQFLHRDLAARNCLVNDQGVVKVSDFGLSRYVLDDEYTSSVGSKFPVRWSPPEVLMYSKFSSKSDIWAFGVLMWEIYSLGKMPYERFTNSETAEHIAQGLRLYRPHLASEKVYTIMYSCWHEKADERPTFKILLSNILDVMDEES", "test": "Reversibility of binding (compound in solution before/after denaturation or digestion of target, HPLC-MS/MS)", "details": "native (folded) target in excess over compound", "experimental": "The following approach was developed to differentiate compounds that form irreversible covalent bond with their targets, such as non-cyano containing acrylamide compounds, from compound that form reversible covalent bond i.e., compounds and/or pharmaceutically acceptable salts of the present disclosure. […] The reactions were then treated with perturbations including both denaturation with 5 M guanidine hydrochloride and digestion with trypsin, disrupting proper folding of the target. […] The concentration of compound in solution was assessed both preceding and following perturbation using high performance liquid chromatography (HPLC) coupled to tandem mass spectrometry.", "data": [{"smiles": "CN(C1COC1)C(C)(C)C=C(C#N)C(=O)N1CCC[C@H]1Cn1nc(-c2ccc(Oc3ccccc3)cc2F)c2c(N)ncnc21", "note": "[Example 10, 2-[(2S)-2-[[4-amino-3-(2-fluoro-4-phenoxy-phenyl)pyrazolo[3,4-d]pyrimidin-1-yl]methyl]pyrrolidine-1-carbonyl]-4-methyl-4-[methyl(oxetan-3-yl)amino]pent-2-enenitrile]", "values": [{"measurement": "Compound in solution in the native state?", "result": "no"}]}]}
